How the values were obtained:
[1] = test system: avocado rootstock cuttings; test: rooting of avocado rootstock cuttings; type: in vivo; details: vc51 rootstock, IBA with compound
Procedure, shortened: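 Green cuttings of avocado rootstock (including hard-to-root VC801) were treated with auxin conjugates in the presence of IBA and scored for rooting.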

[2] = 4-CPA levels in Eucalyptus grandis cuttings by LC-MS (translocation, release from conjugates); type: in vivo
Method: E. grandis cuttings were harvested at time 0, 1, 6 and 24 hours after the indicated treatments. The cutting foliage and basal ends (approximately 2-3 cm of the base) were harvested separately using a sharp pruning shear, rinsed well under a tap water stream, wiped with a paper towel and frozen in liquid nitrogen. Then, each sample was grinded well while still frozen, using an IKA lab mill. For the analysis, 3-6 technical replicates, weight 190-240 mg, were taken from each sample into fresh 2 ml Eppendorf™ tubes. Auxins were extracted in 1 ml of cold 79% isopropanol, 20% methanol and 1% acetic acid solution containing 20 ng of […] IBA and IAA as internal standards. The tubes were vortexed for 1 hr at 4° C. and then centrifuged at 14,000 RPM for 15 minutes. The supernatants were transferred to fresh 2 ml Eppendorf™ tubes. Two more extraction cycles were performed using 0.5 ml of extraction solvent without the internal standards. The tubes containing the collected supernatants were placed in a SpeedVac™ centrifuge for solvent evaporation under room temperature. The pellets were dissolved in pre-chilled 200 μl of 50% methanol, centrifuged, and the supernatant was filtered through […] PDFV syringe filters 13 mm into fresh 2 ml tubes. The ready extractions were kept under −20° C. till analyzed.
LC-MS analyses were conducted using UPLC-Triple Quadrupole-MS device (Waters Xevo TQ MS). Separation was performed on Waters Acquity™ UPLC BEH C18 1.7 μm 2.1×100 mm column with a VanGuard™ precolumn (BEH C18 1.7 μm 2.1×5 mm). Chromatographic and MS parameters were as follows: the mobile phase consisted of water (phase A) and acetonitrile (phase B), both containing 0.1% formic acid in the gradient elution mode. The solvent gradient program was as follows: […]
The flow rate was 0.3 ml/minute, and the column temperature was kept at 35° C. The analyses were performed using the ESI source in negative ion mode with the following settings: capillary voltage 3.1 kV, cone voltage 30 V, desolvation temperature 400° C., desolvation gas flow 565 liters/hour, source temperature 140° C. Quantitation was performed using MRM acquisition by monitoring the 185/127, 185/141, RT=5.77, dwell time of 161 msec for each transition. Calibration curve was used to calculate the concentration of 4-CPA. Acquisition of LC-MS data was performed under MassLynx™ V4.1 software (Waters).
In order to determine whether trend observed in Arabidopsis occurs also in eucalyptus cuttings, the 4-CPA translocation directionality was first examined by treating cuttings with 4-CPA (100 μM) either by submergence of the cutting base or by spraying the leaves. At several time points (i.e. 0, 1, 6 and 24 hours), the cutting base (bottom 2 cm) and the leaves were separately extracted (with isopropanol/methanol/acetic acid solution) and 4-CPA levels were determined by HPLC-MS/MS.
In order to evaluate the rate of conjugates hydrolysis, 4-CPA levels were monitored following treatment with Compounds 1s and 1t. Cuttings were treated with IBA alone (by submerging the cutting base), or with IBA and Compound 1s or it by submerging the cutting base and by spraying the leaves with Compound 1s or 1t. Cutting bases (bottom 2 cm) and leaves were separately extracted 6, 24 and 48 hours after treatment and hormones levels were determined by HPLC-MS/MS.

[3] = 100 μM 4-CPA applied to the cutting base

Compound | roots per cutting of green avocado branches compared with etiolated branches treated with IBA, in words [1] | rooting success rate of green avocado branches, in words ([1]; compared with IBA alone) | 4-CPA level locally (leaves) and in the cutting base ([2]; 100 μM 4-CPA applied to leaves by spraying) | 4-CPA level in leaves [2, 3] | 4-CPA level in the cutting base (local) [2, 3] | time at which 4-CPA levels peaked following application to the leaves ([2]; 100 μM 4-CPA sprayed on leaves) | 4-CPA levels throughout the measurements ([2]; treatment with free 4-CPA or with conjugate)
COC(=O)[C@@H](Cc1c[nH]c2ccccc12)NC(=O)COc1ccc(Cl)cc1 [Compound 1s, 4-CPA-D-Trp] | considerably more roots per cutting | considerably enhanced the rooting success rate |  |  |  |  | 
O=C(O)COc1ccc(Cl)cc1 [Compound 4-CPA, 4-chloro-phenoxyacetic acid, reference compound] |  |  | about 150 ng/gram | less than 10 ng/gram | about 275 ng/gram | 6 h | 250-300 ng/gram
